Experimental data as given in patent US9364479B2, “Use of a receptor-type kinase modulator for treating polycystic kidney disease” (SYMPHONY EVOLUTION, INC., priority 2010, dated 2016).
Read-outs that look alike come from different tables or passages of the source.

Key:
[1] = test system: BALB/C mice; conditions: mouse, in vivo
[2] = In vitro kinase inhibition screen; format: biochemical
Experimental: (§1) Further screening was performed using the biochemical assay methods of Example 2. Additional description of the components and concentrations are summarized in Table 8, Table 9, and Table 10, below.

[3] = target: AMPK; assay: In vitro kinase inhibition screen; format: biochemical
Experimental: as §1

[4] = target: Blk (Homo sapiens, UniProt P51451); assay: In vitro kinase inhibition screen; format: biochemical
Experimental: as §1

[5] = target: CDK1 (Homo sapiens, UniProt P06493); assay: In vitro kinase inhibition screen; format: biochemical
Experimental: as §1

[6] = target: CDK2 (Homo sapiens, UniProt P24941); assay: In vitro kinase inhibition screen; format: biochemical
Experimental: as §1

[7] = target: CDK3 (Homo sapiens, UniProt Q00526); assay: In vitro kinase inhibition screen; format: biochemical
Experimental: as §1

[8] = target: CDK6 (Homo sapiens, UniProt Q00534); assay: In vitro kinase inhibition screen; format: biochemical
Experimental: as §1

[9] = target: CDK7 (Homo sapiens, UniProt P50613); assay: In vitro kinase inhibition screen; format: biochemical
Experimental: as §1

[10] = target: CK2 (Homo sapiens, UniProt P68400); assay: In vitro kinase inhibition screen; format: biochemical
Experimental: as §1

[11] = target: CamKII; assay: In vitro kinase inhibition screen; format: biochemical
Experimental: as §1

[12] = target: Clk1 (Homo sapiens, UniProt P49759); assay: In vitro kinase inhibition screen; format: biochemical
Experimental: as §1

[13] = target: Fes (Homo sapiens, UniProt P07332); assay: In vitro kinase inhibition screen; format: biochemical
Fes, sequence (P07332 whole entry, species assumed): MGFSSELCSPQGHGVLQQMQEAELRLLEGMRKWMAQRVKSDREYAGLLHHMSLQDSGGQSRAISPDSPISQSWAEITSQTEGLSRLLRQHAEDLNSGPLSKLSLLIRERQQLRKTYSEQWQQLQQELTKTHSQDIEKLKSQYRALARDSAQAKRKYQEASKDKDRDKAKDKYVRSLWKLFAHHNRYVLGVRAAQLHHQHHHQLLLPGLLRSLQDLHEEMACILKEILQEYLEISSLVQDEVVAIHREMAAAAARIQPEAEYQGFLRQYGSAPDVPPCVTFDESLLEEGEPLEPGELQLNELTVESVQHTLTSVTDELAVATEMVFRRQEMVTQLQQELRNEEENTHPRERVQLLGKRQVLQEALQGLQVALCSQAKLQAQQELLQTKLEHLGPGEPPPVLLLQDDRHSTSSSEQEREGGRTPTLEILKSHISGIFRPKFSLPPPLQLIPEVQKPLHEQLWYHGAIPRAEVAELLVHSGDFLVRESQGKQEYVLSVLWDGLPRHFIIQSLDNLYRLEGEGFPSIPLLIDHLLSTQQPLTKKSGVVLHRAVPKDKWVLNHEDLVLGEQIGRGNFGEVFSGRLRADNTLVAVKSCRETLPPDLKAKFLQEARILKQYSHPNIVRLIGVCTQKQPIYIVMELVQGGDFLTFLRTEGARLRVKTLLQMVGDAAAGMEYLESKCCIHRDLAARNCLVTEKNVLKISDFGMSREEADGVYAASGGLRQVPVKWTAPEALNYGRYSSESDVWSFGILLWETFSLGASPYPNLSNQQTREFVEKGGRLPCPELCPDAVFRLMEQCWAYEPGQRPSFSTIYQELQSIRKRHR
Experimental: as §1

[14] = target: IKKα (Homo sapiens, UniProt O15111); assay: In vitro kinase inhibition screen; format: biochemical
IKKα, sequence (O15111 whole entry, species assumed): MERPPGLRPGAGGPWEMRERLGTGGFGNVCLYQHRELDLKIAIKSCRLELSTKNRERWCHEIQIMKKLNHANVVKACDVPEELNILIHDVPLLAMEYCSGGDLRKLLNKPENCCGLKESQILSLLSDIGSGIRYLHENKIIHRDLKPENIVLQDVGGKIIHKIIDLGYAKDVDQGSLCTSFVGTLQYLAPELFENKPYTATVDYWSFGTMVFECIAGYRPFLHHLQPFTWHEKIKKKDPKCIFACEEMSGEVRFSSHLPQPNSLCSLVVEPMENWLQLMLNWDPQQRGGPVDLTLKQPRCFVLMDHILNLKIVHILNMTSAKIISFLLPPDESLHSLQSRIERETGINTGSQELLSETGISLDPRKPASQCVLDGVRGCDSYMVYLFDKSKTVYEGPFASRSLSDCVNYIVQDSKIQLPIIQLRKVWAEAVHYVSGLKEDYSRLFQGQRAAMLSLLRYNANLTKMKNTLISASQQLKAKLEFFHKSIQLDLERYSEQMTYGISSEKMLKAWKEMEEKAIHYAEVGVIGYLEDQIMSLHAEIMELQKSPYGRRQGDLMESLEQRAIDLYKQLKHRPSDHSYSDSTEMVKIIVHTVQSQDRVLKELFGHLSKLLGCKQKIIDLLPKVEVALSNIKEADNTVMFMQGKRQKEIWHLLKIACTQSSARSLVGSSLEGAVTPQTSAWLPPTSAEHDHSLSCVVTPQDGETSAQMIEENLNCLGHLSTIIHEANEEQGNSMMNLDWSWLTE
Experimental: as §1

[15] = target: IKKβ (Homo sapiens, UniProt O14920); assay: In vitro kinase inhibition screen; format: biochemical
IKKβ, sequence (O14920 whole entry, species assumed): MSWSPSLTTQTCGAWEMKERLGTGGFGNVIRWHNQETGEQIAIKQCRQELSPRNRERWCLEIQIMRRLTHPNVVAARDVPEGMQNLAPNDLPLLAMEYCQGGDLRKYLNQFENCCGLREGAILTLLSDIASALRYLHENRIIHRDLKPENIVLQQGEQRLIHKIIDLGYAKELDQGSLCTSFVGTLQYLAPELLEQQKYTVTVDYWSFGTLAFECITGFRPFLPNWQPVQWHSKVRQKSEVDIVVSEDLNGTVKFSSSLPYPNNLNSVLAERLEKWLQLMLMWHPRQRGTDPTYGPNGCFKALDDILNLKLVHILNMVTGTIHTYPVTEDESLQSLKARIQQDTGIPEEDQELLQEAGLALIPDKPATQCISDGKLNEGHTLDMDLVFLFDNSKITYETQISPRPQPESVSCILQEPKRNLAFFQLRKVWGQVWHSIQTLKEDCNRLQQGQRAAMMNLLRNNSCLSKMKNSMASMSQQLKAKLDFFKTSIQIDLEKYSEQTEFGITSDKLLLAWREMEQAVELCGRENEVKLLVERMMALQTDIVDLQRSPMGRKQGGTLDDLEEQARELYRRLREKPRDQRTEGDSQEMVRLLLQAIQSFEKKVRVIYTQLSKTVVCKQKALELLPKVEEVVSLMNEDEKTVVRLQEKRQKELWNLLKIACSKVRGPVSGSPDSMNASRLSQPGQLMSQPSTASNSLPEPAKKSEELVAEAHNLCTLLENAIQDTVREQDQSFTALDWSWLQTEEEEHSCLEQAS
Experimental: as §1

[16] = target: JNK3α (Homo sapiens, UniProt P53779); assay: In vitro kinase inhibition screen; format: biochemical
JNK3α, sequence (P53779 whole entry): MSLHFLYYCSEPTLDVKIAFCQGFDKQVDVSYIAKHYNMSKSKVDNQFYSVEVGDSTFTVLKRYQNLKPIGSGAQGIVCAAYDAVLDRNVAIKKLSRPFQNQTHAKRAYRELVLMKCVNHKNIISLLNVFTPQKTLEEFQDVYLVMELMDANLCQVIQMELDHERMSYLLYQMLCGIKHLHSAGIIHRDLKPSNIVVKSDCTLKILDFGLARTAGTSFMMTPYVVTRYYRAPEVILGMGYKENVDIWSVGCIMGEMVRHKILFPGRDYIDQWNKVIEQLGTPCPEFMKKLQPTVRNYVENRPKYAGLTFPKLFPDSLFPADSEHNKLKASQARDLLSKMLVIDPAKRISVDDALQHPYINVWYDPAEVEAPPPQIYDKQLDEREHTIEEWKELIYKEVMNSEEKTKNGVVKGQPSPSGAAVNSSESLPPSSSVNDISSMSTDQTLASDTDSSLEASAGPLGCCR
Experimental: as §1

[17] = target: Lyn (Homo sapiens, UniProt P07948); assay: In vitro kinase inhibition screen; format: biochemical
Experimental: as §1

[18] = target: MAP4K5 (Homo sapiens, UniProt Q9Y4K4); assay: In vitro kinase inhibition screen; format: biochemical
Experimental: as §1

[19] = target: MAPK1 (Homo sapiens, UniProt P27361); assay: In vitro kinase inhibition screen; format: biochemical
Experimental: as §1

[20] = target: MAPKAP2 (Homo sapiens, UniProt P49137); assay: In vitro kinase inhibition screen; format: biochemical
Experimental: as §1

[21] = target: MEK1 (Homo sapiens, UniProt Q02750); assay: In vitro kinase inhibition screen; format: biochemical
Experimental: as §1

[22] = target: MKK4 (Homo sapiens, UniProt P45985); assay: In vitro kinase inhibition screen; format: biochemical
Experimental: as §1

[23] = target: MKK6 (Homo sapiens, UniProt P52564); assay: In vitro kinase inhibition screen; format: biochemical
MKK6, sequence (P52564 whole entry, species assumed): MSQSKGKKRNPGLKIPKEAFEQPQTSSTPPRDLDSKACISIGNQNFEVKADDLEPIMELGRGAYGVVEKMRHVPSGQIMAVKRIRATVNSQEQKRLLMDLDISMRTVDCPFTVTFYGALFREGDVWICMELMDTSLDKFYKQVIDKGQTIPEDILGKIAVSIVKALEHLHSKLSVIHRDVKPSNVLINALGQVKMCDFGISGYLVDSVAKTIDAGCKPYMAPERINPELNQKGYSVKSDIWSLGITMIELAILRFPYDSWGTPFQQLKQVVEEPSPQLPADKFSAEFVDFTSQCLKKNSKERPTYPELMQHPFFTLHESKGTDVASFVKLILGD
Experimental: as §1

[24] = target: MKK7β (Homo sapiens, UniProt O14733); assay: In vitro kinase inhibition screen; format: biochemical
MKK7β, sequence (O14733 whole entry): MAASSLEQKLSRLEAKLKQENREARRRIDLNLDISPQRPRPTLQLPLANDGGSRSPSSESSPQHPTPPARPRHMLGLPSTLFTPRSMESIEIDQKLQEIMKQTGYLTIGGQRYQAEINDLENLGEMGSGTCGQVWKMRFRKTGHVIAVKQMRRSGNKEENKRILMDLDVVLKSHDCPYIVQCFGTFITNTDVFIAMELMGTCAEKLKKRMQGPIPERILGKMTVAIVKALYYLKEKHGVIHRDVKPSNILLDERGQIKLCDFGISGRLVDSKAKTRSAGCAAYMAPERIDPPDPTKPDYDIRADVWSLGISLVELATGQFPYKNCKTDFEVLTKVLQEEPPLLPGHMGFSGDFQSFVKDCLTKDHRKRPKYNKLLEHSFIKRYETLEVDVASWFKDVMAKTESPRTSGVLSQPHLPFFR
Experimental: as §1

[25] = target: PAK2 (Homo sapiens, UniProt Q13177); assay: In vitro kinase inhibition screen; format: biochemical
Experimental: as §1

[26] = target: PDGFR-α (Homo sapiens, UniProt P16234); assay: In vitro kinase inhibition screen; format: biochemical
Experimental: as §1

[27] = target: PDGFRβ (Homo sapiens, UniProt P09619); assay: In vitro kinase inhibition screen; format: biochemical
Experimental: as §1

[28] = target: PKCα (Homo sapiens, UniProt P17252); assay: In vitro kinase inhibition screen; format: biochemical
Experimental: as §1

[29] = target: PRAK (Homo sapiens, UniProt Q8IW41); assay: In vitro kinase inhibition screen; format: biochemical
Experimental: as §1

[30] = target: ROCK II (Homo sapiens, UniProt O75116); assay: In vitro kinase inhibition screen; format: biochemical
Experimental: as §1

[31] = target: Rsk2 (Homo sapiens, UniProt P51812); assay: In vitro kinase inhibition screen; format: biochemical
Experimental: as §1

[32] = target: Rsk3 (Homo sapiens, UniProt Q15349); assay: In vitro kinase inhibition screen; format: biochemical
Rsk3, sequence (Q15349 whole entry, species assumed): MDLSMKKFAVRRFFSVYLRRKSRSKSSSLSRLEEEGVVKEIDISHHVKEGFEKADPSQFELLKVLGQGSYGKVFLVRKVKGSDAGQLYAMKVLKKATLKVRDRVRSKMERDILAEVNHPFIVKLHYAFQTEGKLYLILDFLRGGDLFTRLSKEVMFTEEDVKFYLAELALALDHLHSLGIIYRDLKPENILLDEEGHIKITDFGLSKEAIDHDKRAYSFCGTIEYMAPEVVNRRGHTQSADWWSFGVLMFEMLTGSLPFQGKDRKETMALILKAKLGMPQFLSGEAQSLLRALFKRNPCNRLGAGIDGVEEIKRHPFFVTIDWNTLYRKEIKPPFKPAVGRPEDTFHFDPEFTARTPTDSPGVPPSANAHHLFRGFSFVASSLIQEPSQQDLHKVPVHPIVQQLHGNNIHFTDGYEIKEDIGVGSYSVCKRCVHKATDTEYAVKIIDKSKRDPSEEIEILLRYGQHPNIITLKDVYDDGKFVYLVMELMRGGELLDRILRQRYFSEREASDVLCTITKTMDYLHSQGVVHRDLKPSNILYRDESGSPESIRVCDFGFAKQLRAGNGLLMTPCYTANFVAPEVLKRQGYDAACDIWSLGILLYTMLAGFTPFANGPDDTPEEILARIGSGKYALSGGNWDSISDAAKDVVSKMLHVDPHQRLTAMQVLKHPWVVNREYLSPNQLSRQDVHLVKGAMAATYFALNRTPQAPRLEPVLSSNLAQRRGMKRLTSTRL
Experimental: as §1

[33] = target: SAPK3 (Homo sapiens, UniProt P53778); assay: In vitro kinase inhibition screen; format: biochemical
Experimental: as §1

[34] = target: SAPK4 (Homo sapiens, UniProt O15264); assay: In vitro kinase inhibition screen; format: biochemical
Experimental: as §1

[35] = target: SGK (Homo sapiens, UniProt O00141); assay: In vitro kinase inhibition screen; format: biochemical
Experimental: as §1

[36] = target: Syk (Homo sapiens, UniProt P43405); assay: In vitro kinase inhibition screen; format: biochemical
Experimental: as §1

[37] = target: Yes (Homo sapiens, UniProt P07947); assay: In vitro kinase inhibition screen; format: biochemical
Experimental: as §1

[38] = target: c-Raf (Homo sapiens, UniProt P04049); assay: In vitro kinase inhibition screen; format: biochemical
c-Raf, sequence (P04049 whole entry, species assumed): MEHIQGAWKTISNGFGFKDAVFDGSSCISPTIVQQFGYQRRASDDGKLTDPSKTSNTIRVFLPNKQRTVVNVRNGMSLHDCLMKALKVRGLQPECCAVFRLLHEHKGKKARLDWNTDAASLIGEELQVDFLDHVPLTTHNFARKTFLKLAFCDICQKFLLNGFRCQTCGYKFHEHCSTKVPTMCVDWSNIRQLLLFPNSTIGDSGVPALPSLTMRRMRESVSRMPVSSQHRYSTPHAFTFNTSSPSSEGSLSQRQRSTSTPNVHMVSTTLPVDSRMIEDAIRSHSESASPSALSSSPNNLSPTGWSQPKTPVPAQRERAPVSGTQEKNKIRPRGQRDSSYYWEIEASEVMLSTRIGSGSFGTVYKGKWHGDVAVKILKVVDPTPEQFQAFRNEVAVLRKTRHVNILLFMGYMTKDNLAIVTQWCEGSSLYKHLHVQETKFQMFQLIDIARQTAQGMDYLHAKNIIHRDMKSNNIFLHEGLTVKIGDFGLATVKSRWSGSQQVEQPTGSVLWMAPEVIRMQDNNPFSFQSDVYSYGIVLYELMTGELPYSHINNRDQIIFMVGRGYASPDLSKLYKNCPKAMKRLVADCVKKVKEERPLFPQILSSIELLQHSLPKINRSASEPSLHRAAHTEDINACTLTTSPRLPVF
Experimental: as §1

[39] = test system: Calu-6 human tumor xenograft; assay: Calu-6 xenograft, tumor growth; format: in vivo; conditions: Mus musculus, qd × 28
Experimental: The response of tumors to treatment was determined by comparing the mean tumor weight of the treatment group with the appropriate control group. Percentage inhibition of tumor growth was determined with the following formula: Percentage inhibition=100×[1−(Xf−Xo)/(Yf−Yo)], where Xf and Yf are the mean tumor weights of the treatment and control groups, respectively, on day f, and Xo and Yo are the mean tumor weights of treatment and control groups respectively, on day zero (staged tumor weights after grouping)

COc1cc2c(Nc3ccc(Cl)c(Cl)c3F)ncnc2cc1OC[C@@H]1C[C@@H]2CN(C)C[C@@H]2C1 [XL-647, N-(3,4-dichloro-2-fluorophenyl)-7-({[(3aR,5r,6aS)-2-methyloctahydrocyclopenta[c]pyrrol-5-yl]methyl}oxy)-6-(methyloxy)quinazolin-4-amine]
BUN ([1]; 7.5 mg/kg/day): 19.00 mg/dL | CT-CI ([1]; 7.5 mg/kg/day): 0 | Creatinine ([1]; 7.5 mg/kg/day): 0.24 mg/dL | MUCA ([1]; 7.5 mg/kg/day): 1029 mOsmol | BUN ([1]; 15 mg/kg/day): 19.29 mg/dL | CT-CI ([1]; 15 mg/kg/day): 0 | Creatinine ([1]; 15 mg/kg/day): 0.29 mg/dL | MUCA ([1]; 15 mg/kg/day): 1029 mOsmol | IC50 [2]: > 1000 nM | IC50 [3]: > 1000 nM | IC50 [4]: 15 nM | IC50 [5]: > 1000 nM | IC50 [6]: > 1000 nM | IC50 [7]: > 1000 nM | IC50 [8]: > 1000 nM | IC50 [9]: > 1000 nM | IC50 [10]: > 1000 nM | IC50 [11]: > 1000 nM | IC50 [12]: > 10000 nM | IC50 [13]: 474 nM | IC50 [14]: > 1000 nM | IC50 [15]: > 1000 nM | IC50 [16]: > 1000 nM | IC50 [17]: 2 nM | IC50 [18]: > 1000 nM | IC50 [19]: > 1000 nM | IC50 [20]: > 10000 nM | IC50 [21]: > 1000 nM | IC50 [22]: > 1000 nM | IC50 [23]: > 1000 nM | IC50 [24]: > 1000 nM | IC50 [25]: > 1000 nM | IC50 [26]: 64.4 ± 7.2 nM | IC50 [27]: 346 ± 37 nM | IC50 [28]: > 10000 nM | IC50 [29]: > 1000 nM | IC50 [30]: > 1000 nM | IC50 [31]: > 1000 nM | IC50 [32]: > 1000 nM | IC50 [33]: > 1000 nM | IC50 [34]: > 1000 nM | IC50 [35]: > 10000 nM | IC50 [36]: > 1000 nM | IC50 [37]: 1.1 nM | IC50 [38]: > 1000 nM | ED50 [39]: 16.4 mg/kg
